In ChEMBL document CHEMBL4706628, “Ligand-based optimization to identify novel 2-aminobenzo[d]thiazole derivatives as potent sEH inhibitors with anti-inflammatory effects” (Eur J Med Chem, 2021):
In brackets after ≈: the same amount, converted by molar mass.

Experiments:
Mus musculus [1] = assay: Antiinflammatory activity in BALB/c mouse model of carrageenan-induced paw edema assessed as paw thickness at 100 mg/kg, ip pretreated for 1 hr followed by carrageenan challenge and measured after 2 hrs by caliper method (reference value: 3.56 +/- 0.29 millimeter); assay type: functional; settings: time 3 hrs
in vitro [2] = settings: Sprague-Dawley, rat, liver microsomes
Description: Stability in Sprague-Dawley rat liver microsomes assessed as parent compound remaining at 10 uM measured after 60 mins in absence of NADPH regenerating system by HPLC analysis

Mus musculus [3] = assay: Antiinflammatory activity in BALB/c mouse model of carrageenan-induced paw edema assessed as paw edema at 100 mg/kg, ip pretreated for 1 hr followed by carrageenan challenge and measured after 4 hrs by caliper method relative to control; assay type: functional; settings: time 5 hrs
Mus musculus [4] = assay: Antiinflammatory activity in BALB/c mouse model of carrageenan-induced paw edema assessed as paw edema at 100 mg/kg, ip pretreated for 1 hr followed by carrageenan challenge and measured after 2 hrs by caliper method relative to control; assay type: functional; settings: time 3 hrs
Mus musculus [5] = assay: Antiinflammatory activity in BALB/c mouse model of carrageenan-induced paw edema assessed as paw thickness at 100 mg/kg, ip pretreated for 1 hr followed by carrageenan challenge and measured after 1 hr by caliper method (reference value: 3.51 +/- 0.19 millimeter); assay type: functional; settings: time 2 hrs
[6] = Solubility of compound in pH 7.4 PBS buffer measured after 2 hrs by turbidimetric assay; assay type: physicochemical
HepG2 = assay: Cytotoxicity against human HepG2 cells assessed as reduction in cell viability measured after 48 hrs by MTT assay; assay type: cell-based; settings: HepG2, 48 h
[7] = target: T1, Bifunctional epoxide hydrolase 2 (Homo sapiens) (UniProt P34913); assay: Mixed-type inhibition of recombinant human sEH assessed as inhibitor dissociation constant using PHOME as substrate measured after 15 mins by fluorescence based Lineweaver-burk plot analysis
T1 sequence (whole entry): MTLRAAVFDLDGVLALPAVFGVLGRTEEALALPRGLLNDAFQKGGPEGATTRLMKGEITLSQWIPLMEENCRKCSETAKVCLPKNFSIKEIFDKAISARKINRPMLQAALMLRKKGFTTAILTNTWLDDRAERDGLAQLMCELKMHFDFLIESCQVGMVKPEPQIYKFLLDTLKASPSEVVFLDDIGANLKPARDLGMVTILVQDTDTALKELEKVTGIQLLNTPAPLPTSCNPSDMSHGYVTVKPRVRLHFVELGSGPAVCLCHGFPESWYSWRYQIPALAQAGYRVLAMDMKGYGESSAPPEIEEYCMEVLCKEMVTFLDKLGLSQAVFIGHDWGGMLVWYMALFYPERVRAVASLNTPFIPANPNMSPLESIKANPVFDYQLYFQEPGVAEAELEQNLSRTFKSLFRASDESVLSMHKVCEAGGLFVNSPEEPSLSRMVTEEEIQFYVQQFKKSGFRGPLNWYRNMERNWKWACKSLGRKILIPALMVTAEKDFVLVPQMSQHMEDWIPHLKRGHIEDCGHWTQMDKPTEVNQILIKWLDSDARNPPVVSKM

in vitro [8] = settings: Sprague-Dawley, rat, liver microsomes; remark: listed apart in the source
Description: Stability in Sprague-Dawley rat liver microsomes assessed as parent compound remaining at 10 uM measured after 60 mins in presence of NADPH regenerating system by HPLC analysis

Mus musculus [9] = assay: Antiinflammatory activity in BALB/c mouse model of carrageenan-induced paw edema assessed as paw thickness at 100 mg/kg, ip pretreated for 1 hr followed by carrageenan challenge and measured after 3 hrs by caliper method (reference value: 3.61 +/- 0.36 millimeter); assay type: functional; settings: time 4 hrs
[10] = target: T2, Bifunctional epoxide hydrolase 2 (Homo sapiens, UniProt P34913); assay: Mixed-type inhibition of recombinant human sEH using PHOME as substrate measured after 15 mins by fluorescence based Lineweaver-burk plot analysis
T2 sequence (P34913 whole entry): T1 sequence (whole entry)

Mus musculus [11] = assay: Antiinflammatory activity in BALB/c mouse model of carrageenan-induced paw edema assessed as paw thickness at 100 mg/kg, ip pretreated for 1 hr followed by carrageenan challenge and measured after 4 hrs by caliper method (reference value: 3.60 +/- 0.12 millimeter); assay type: functional; settings: time 5 hrs
in vitro [12] = settings: Sprague-Dawley, rat, liver microsomes; remark: listed apart in the source
in vitro [13] = settings: Sprague-Dawley, rat, liver microsomes; remark: listed apart in the source
Description: Half life in Sprague-Dawley rat liver microsomes at 10 uM measured up to 60 mins in presence of NADPH regenerating system by HPLC analysis

in vitro [14] = settings: Sprague-Dawley, rat, liver microsomes; remark: listed apart in the source
[15] = target: T1, Bifunctional epoxide hydrolase 2 (Homo sapiens); assay: Inhibition of recombinant human sEH at 100 nM using PHOME as substrate measured after 15 mins by fluorescence assay relative to control
[16] = target: T2, Bifunctional epoxide hydrolase 2; assay: Inhibition of recombinant human sEH using PHOME as substrate measured after 15 mins by fluorescence assay
Mus musculus [17] = assay: Antiinflammatory activity in BALB/c mouse model of carrageenan-induced paw edema assessed as paw edema at 100 mg/kg, ip pretreated for 1 hr followed by carrageenan challenge and measured after 3 hrs by caliper method relative to control; assay type: functional; settings: time 4 hrs
Mus musculus [18] = assay: Antiinflammatory activity in BALB/c mouse model of carrageenan-induced paw edema assessed as paw edema at 100 mg/kg, ip pretreated for 1 hr followed by carrageenan challenge and measured after 1 hr by caliper method relative to control; assay type: functional; settings: time 2 hrs
[19] = target: T1, Bifunctional epoxide hydrolase 2 (Homo sapiens); assay: Potency index, ratio of t-AUCB IC50 to test compound IC50 for recombinant human sEH

Structure (SMILES)	Activity (Mus musculus [1])	remaining at 1 h, 10 µM (in vitro [2])	Activity (Mus musculus [3])	Activity (Mus musculus [4])	Activity (Mus musculus [5])	solubility kinetic at 2 h [6]	IC50 (HepG2)	Kdiss [7]	remaining at 1 h, 10 µM (in vitro [8])	Activity (Mus musculus [9])	Ki [10]	Activity (Mus musculus [11])	microsomal CLint at 1 h, 10 µM (in vitro [12])	half-life at 1 h, 10 µM (in vitro [13])	microsomal CLint at 1 h, 10 µM (in vitro [14])	inhibition [15]	IC50 [16]	Activity (Mus musculus [17])	Activity (Mus musculus [18])	Ratio IC50 [19]
O=C(Cc1ccccc1)Nc1nc2ccc(N(CCN3CCOCC3)C(=O)Nc3ccc(Cl)cc3)cc2s1	3.22 mm	116%	20.32%	17.58%	3.33 mm	61 µg/mL (≈ 111 µM)	> 25000 nM	23.1 nM	0%	3.19 mm	4.77 nM	3.3 mm	1480 µL/min/mg	1.7 min	820 µL/min/mg	84.7%	0.082 nM	16.48%	21.56%	
O=C(Nc1ccc(Cl)cc1)Nc1nc2ccc(N(CCN3CCOCC3)C(=O)Nc3ccc(Cl)cc3)cc2s1						30 µg/mL (≈ 51.2 µM)										90.2%	0.1 nM			67
Nc1nc2ccc(N(CCN3CCOCC3)C(=O)Nc3ccc(Cl)cc3)cc2s1	3.06 mm	99.5%	23.39%	19.06%	3.11 mm	39 µg/mL (≈ 90.3 µM)	> 25000 nM		30.1%	3.13 mm		3.17 mm	71.9 µL/min/mg	34.7 min	40 µL/min/mg	89.1%	2.8 nM	21.64%	20.99%	
Nc1nc2ccc(N(CCN3CCOCC3)C(=O)Nc3ccc(F)c(Br)c3)cc2s1	3.16 mm	85%	27.12%	31.49%	3.15 mm	68 µg/mL (≈ 138 µM)	> 25000 nM		36.2%	3.06 mm		3.06 mm	55.8 µL/min/mg	44.7 min	31 µL/min/mg	90.5%		27.39%	30.86%	
